Experimental data as given in paper PMC4894652 (Neuron, 2016).

Biological target: T1, DmSLC22A (CG7442) (Drosophila melanogaster, UniProt Q7JRD5)
T1 sequence (Q7JRD5 1-568): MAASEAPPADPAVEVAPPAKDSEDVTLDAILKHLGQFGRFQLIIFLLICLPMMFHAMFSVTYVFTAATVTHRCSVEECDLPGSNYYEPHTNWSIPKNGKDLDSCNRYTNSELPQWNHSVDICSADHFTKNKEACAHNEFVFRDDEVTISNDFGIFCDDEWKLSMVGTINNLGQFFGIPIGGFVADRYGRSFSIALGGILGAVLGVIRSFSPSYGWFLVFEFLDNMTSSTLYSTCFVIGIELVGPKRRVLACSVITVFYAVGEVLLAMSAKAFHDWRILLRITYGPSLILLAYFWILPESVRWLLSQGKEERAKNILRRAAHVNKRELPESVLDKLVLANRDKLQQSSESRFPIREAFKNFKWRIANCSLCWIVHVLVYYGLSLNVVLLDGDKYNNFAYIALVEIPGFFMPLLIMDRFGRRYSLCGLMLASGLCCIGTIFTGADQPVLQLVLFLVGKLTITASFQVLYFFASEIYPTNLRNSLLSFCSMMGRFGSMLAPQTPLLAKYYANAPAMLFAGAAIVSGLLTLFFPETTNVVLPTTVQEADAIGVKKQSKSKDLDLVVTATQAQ
Type: cell-based
Settings: labelled compound; doxycycline-induced vs un-induced cells

SMILES | apparent Km
C[n+]1ccc(-c2ccccc2)cc1 [MPP] | Table S2 lists the apparent Km and Vmax values for each substrate
CC[N+](CC)(CC)CC [TEA] | Table S2 lists the apparent Km and Vmax values for each substrate
CC(=O)OCC[N+](C)(C)C [acetylcholine] | choline and acetylcholine are transported with low μM Km values
C[N+](C)(C)CC(=O)[O-] [betaine] | Table S2 lists the apparent Km and Vmax values for each substrate
C[N+](C)(C)CCO [choline] | choline and acetylcholine are transported with low μM Km values
NCCc1c[nH]cn1 [histamine] | Table S2 lists the apparent Km and Vmax values for each substrate
NCCc1c[nH]c2ccc(O)cc12 [serotonin] | Table S2 lists the apparent Km and Vmax values for each substrate
